# According to patent US8143394B2, “Pyrido(3,2-d)pyrimidines useful for treating viral infections” (Gilead Sciences, Inc., priority 2006, dated 2012):
# Where two headings read alike, the source gives them in different places.
# Tests used:
# HCV replicon = test: Anti-HCV replicon assay (EC50, luciferase readout); assay type: cell-based; conditions: Hepatitis C virus
# Procedure: (§1) The anti-HCV activity of the pyrido[3,2-d]pyrimidine derivatives of this invention was tested in a human hepatoma Huh-7 cell line harbouring a HCV replicon. The assay comprised the following steps:
# (§2) Step 1: Compound Preparation and Serial Dilution
# (§3) • 1. for water soluble pyrido[3,2-d]pyrimidine derivatives, a volume of 500 μL of solution in cell media (DMEM, 10% FBS, P/S, L-Glutamine) was prepared with a concentration being twice the concentration of the starting final serial dilution concentration. A volume of 150 μL of the solution was added to the pre-specified wells in column 1 of a 96-well cell culture plate (PerkinElmer, white plate, cat. #6005181, for EC50 assay; black plate, cat. #6005182 for CC50 assay). The rest of the plate, columns 2-12, was filled with 100 μL of cell media. The plate was then placed on a Precision 2000 Workstation to start the serial dilution. Compounds were diluted three times each step from column 1 to column 10. Column 11 was used as a blank control (no compound added). • 2. for pyrido[3,2-d]pyrimidine derivatives requiring DMSO to dissolve, serial dilution is performed in 50% DMSO in a 384-well plate. A solution containing a compound at 100-fold concentration of the starting final serial dilution concentration was prepared in 50% DMSO and added to the pre-specified wells in column 1 of a polypropylene 384-well plate. The plate was then placed on a Precision 2000 Workstation to start the serial dilution. After the serial dilution, a volume of 2 μL of the solution was transferred from the 384-well plate to a 96-well cell culture plate containing 100 μL of cell media on a Biomek FX Workstation. The DMSO concentration in the final assay condition was 0.5% after cells are added to the plate and the total volume in each well is brought to 200 μL. Step 2: to each well of the serial dilution plate prepared above, 100 μL of cell media containing 6000 suspended Huh-7 HCV replicon cells was added with a Multidrop workstation. The plates were incubated for 3 days at 37° C. with 5% CO2. Step 3: Detection: • a) for the EC50 assay, the media in a 96-well cell culture plate was aspirated with a Biotek EL405 plate-washer. A volume of 200 μL of a solution containing a 1:1 mixture of cell-lysis buffer (Promega, Luciferase Cell Culture Lysis 5X Reagent, cat. #E1531) and luciferase substrate solution (Promega, Luciferase Assay, cat. # E4550) was added to each well of the plate with Multidrop. The plate was incubated for 30 minutes at room temperature before the luminescence signal was measured with a TopCount plate-reader. • b) for the CC50 assay, a volume of 100 μL of pre-mixed CellTiter-Glo (Promega, cat. # G7572) solution is added directly to the cell culture in each well of the plate and the luminescence signal is measured with a TopCount plate-reader after 10 minutes of incubation at room temperature.
# (§4) Results in table 13 are expressed by the following data: • the 50% effective concentration (EC50), i.e. the concentration that protects 50% of the cell monolayer from virus-induced cythopathic effect, and • the 50% cytostatic concentration (CC50), i.e. the concentration that results in 50% inhibition of cell growth.
# [1] = CC50 assay (CellTiter-Glo) in Huh-7 HCV replicon cells; assay type: cell-based, human; conditions: human, 50% cytostatic concentration
# Procedure: as §1, §2, §3, §4
# [2] = 72 h, human hepatoma Huh-7 cell line harbouring a HCV replicon, 3 days, luciferase, read-out: EC50
SMILES,EC50 (HCV replicon; [2]) [nM],CC50 at 3 days [1] [nM],"EC50 (HCV replicon; Huh-7, 72 h) [nM]"
"CCCCNC(=O)c1ccc(-c2ccc3nc(N)nc(OC(C)C)c3n2)cc1 [Example 66, 4-(2-Amino-4-isopropoxy-pyrido[3,2-d]pyrimidin-6-yl)-N-n-butyl-benzamide]",300 to 1000,> 20000,
"COCCOc1nc(N)nc2ccc(-c3ccc(C(=O)NC(C)C)cc3)nc12 [Example 75, 4-[2-Amino-4-(2-methoxy-ethoxy)-pyrido[3,2-d]pyrimidin-6-yl]-N-isopropyl-benzamide]",300 to 1000,> 20000,
"Nc1nc(N2CCOCC2)c2nc(-c3ccc(C(=O)NC4CC4)cc3)ccc2n1 [Example 17, 4-(2-amino-4-morpholin-4-yl-pyrido[3,2-d]pyrimidin-6-yl)-N-cyclopropyl-benzamide]",< 300,< 10000,
CCOc1nc(N)nc2ccc(-c3ccc(Nc4nccs4)cc3)nc12 [Example 31],300 to 1000,10000 to 20000,
"COCCOc1nc(N)nc2ccc(-c3ccc(C(=O)NOC)cc3)nc12 [Example 76, 4-[2-Amino-4-(2-methoxy-ethoxy)-pyrido[3,2-d]pyrimidin-6-yl]-N-methoxy-benzamide]",300 to 1000,> 20000,
"CCC(=O)Nc1ccc(-c2ccc3nc(N)nc(N4CCS(=O)(=O)CC4)c3n2)cc1 [Example 12, N-{4-[2-Amino-4-(1,1-dioxo-1λ^6-thiomorpholin-4-yl)-pyrido[3,2-d]pyrimidin-6-yl]-phenyl}-propionamide]",< 300,< 10000,
"Nc1nc(O[C@@H]2CCOC2)c2nc(-c3ccc(NC(=O)[C@H]4CCNC4)cc3)ccc2n1 [Example 24, Pyrrolidine-3-carboxylic acid {4-[2-amino-4-(tetrahydro-furan-3-yloxy)-pyrido[3,2-d]pyrimidin-6-yl]-phenyl}-amide]",> 1000,> 20000,
"CCOc1nc(N)nc2ccc(-c3cccc(NS(=O)(=O)C4CC4)c3)nc12 [Example 53, Cyclopropanesulfonic acid[3-(2-amino-4-ethoxy-pyrido[3,2-d]pyrimidin-6-yl)-phenyl]-amide]",< 300,> 20000,
"COCCOc1nc(N)nc2ccc(-c3ccc(NC(=O)OC)cc3)nc12 [Example 19, {4-[2-Amino-4-(2-methoxy-ethoxy)-pyrido[3,2-d]pyrimidin-6-yl]-phenyl}-carbamic acid methyl ester]",300 to 1000,> 20000,
"CCOc1nc(N)nc2ccc(-c3ccc(NC(=O)OC)cc3)nc12 [Example 44, [4-(2-Amino-4-ethoxy-pyrido[3,2-d]pyrimidin-6-yl)-phenyl]-carbamic acid methyl ester]",,> 20000,300 to 1000
"CCOc1nc(N)nc2ccc(-c3ccc(NS(C)(=O)=O)cc3)nc12 [Example 43, N-[4-(2-Amino-4-ethoxy-pyrido[3,2-d]pyrimidin-6-yl)-phenyl]-methanesulfonamide]",> 1000,> 20000,
"Nc1nc(N2CCS(=O)(=O)CC2)c2nc(-c3ccc(C(=O)NC4CC4)cc3)ccc2n1 [Example 16, 4-[2-Amino-4-(1,1-dioxo-1λ^6-thiomorpholin-4-yl)-pyrido[3,2-d]pyrimidin-6-yl]-N-cyclopropyl-benzamide]",< 300,10000 to 20000,
"CCCCNC(=O)c1ccc(-c2ccc3nc(N)nc(OCC)c3n2)cc1 [Example 57, 4-(2-Amino-4-ethoxy-pyrido[3,2-d]pyrimidin-6-yl)-N-butyl-benzamide]",300 to 1000,> 20000,
"Nc1nc(O[C@H]2CCOC2)c2nc(-c3ccc(C(=O)NCCCN4CCCC4)cc3)ccc2n1 [Example 79, 4-[2-Amino-4-(tetrahydro-furan-3-yloxy)-pyrido[3,2-d]pyrimidin-6-yl]-N-(3-pyrrolidin-1-yl-propyl)-benzamide]",300 to 1000,> 20000,
"CCOc1nc(N)nc2ccc(-c3cccc(NS(=O)(=O)c4cnc(NC(C)=O)s4)c3)nc12 [Example 48, N-{5-[3-(2-Amino-4-ethoxy-pyrido[3,2-d]pyrimidin-6-yl)-phenylsulfamoyl]-thiazol-2-yl}-acetamide]",< 300,> 20000,
"CS(=O)(=O)CCNc1nc(N)nc2ccc(-c3ccc(C(=O)NC4CC4)cc3)nc12 [Example 7, 4-[2-Amino-4-(2-methanesulfonyl-ethylamino)-pyrido[3,2-d]pyrimidin-6-yl]-N-cyclopropyl-benzamide]",300 to 1000,> 20000,
"CN1CCCC1CCNC(=O)c1ccc(-c2ccc3nc(N)nc(O[C@H]4CCOC4)c3n2)cc1 (stereo partly shown) [Example 78, 4-[2-Amino-4-(tetrahydro-furan-3-yloxy)-pyrido[3,2-d]pyrimidin-6-yl]-N-[2-(1-methyl-pyrrolidin-2-yl)-ethyl]-benzamide]",> 1000,> 20000,
"CCOc1nc(N)nc2ccc(-c3cccc(NS(=O)(=O)C4CCS(=O)(=O)C4)c3)nc12 (stereo not shown) [Example 51, 1,1-Dioxo-tetrahydro-1?^6-thiophene-3-sulfonic acid [3-(2-amino-4-ethoxy-pyrido[3,2-d]pyrimidin-6-yl)-phenyl]-amide]",< 300,> 20000,
"CCOc1nc(N)nc2ccc(-c3cccc(NS(=O)(=O)C(C)C)c3)nc12 [Example 52, Propane-2-sulfonic acid[3-(2-amino-4-ethoxy-pyrido[3,2-d]pyrimidin-6-yl)-phenyl]-amide]",< 300,< 10000,
"COCCOc1nc(N)nc2ccc(-c3ccc(C(=O)NC4CC4)cc3)nc12 [Example 20, 4-[2-Amino-4-(2-methoxy-ethoxy)-pyrido[3,2-d]pyrimidin-6-yl]-N-cyclopropyl-benzamide]",< 300,> 20000,
"COCCNc1nc(N)nc2ccc(-c3ccc(NC(=O)OC)cc3)nc12 [Example 10, {4-[2-Amino-4-(2-methoxy-ethylamino)-pyrido[3,2-d]pyrimidin-6-yl]-phenyl}-carbamic acid methyl ester]",300 to 1000,> 20000,
"CCOc1nc(N)nc2ccc(-c3cccc(NS(=O)(=O)CC(F)(F)F)c3)nc12 [Example 35, 2,2,2-Trifluoro-ethanesulfonic acid [3-(2-amino-4-ethoxy-pyrido[3,2-d]pyrimidin-6-yl)-phenyl]-amide]",300 to 1000,> 20000,
"CCOc1nc(N)nc2ccc(-c3ccc(NC(=O)C(C)(C)N)cc3)nc12 [Example 37, 2-Amino-N-[4-(2-amino-4-ethoxy-pyrido[3,2-d]pyrimidin-6-yl)-phenyl]-2-methyl-propionamide]",< 300,> 20000,
"CC(C)NC(=O)c1ccc(-c2ccc3nc(N)nc(OC(C)C)c3n2)cc1 [Example 69, 4-(2-Amino-4-isopropoxy-pyrido[3,2-d]pyrimidin-6-yl)-N-isopropyl-benzamide]",< 300,> 20000,
"CCOc1nc(N)nc2ccc(-c3ccc(NC(=O)[C@H](C)N)c(F)c3)nc12 [Example 34, 2-Amino-N-[4-(2-amino-4-ethoxy-pyrido[3,2-d]pyrimidin-6-yl)-2-fluoro-phenyl]-propanamide]",< 300,> 20000,
CCOc1nc(N)nc2ccc(-c3cccc(NS(=O)(=O)c4ccc(C)cc4)c3)nc12 [Example 40],300 to 1000,> 20000,
